Laboratory results as given in the NIST ThermoML archive (doi:10.1016/j.jct.2016.09.041).
± gives the expanded uncertainty stated by the source.

Conditions: for molar entropy: 101.33 kPa, Small (less than 1 g) adiabatic calorimetry

N[C@@H](Cc1c[nH]c2ccccc12)C(=O)O [L-tryptophan]
molar entropy [J/K/mol]
Conditions	Crystal	Crystal 1
5 K	0.2245 ± 0.033	–
10 K	1.663 ± 0.25	–
15 K	4.49 ± 0.25	–
20 K	8.314 ± 0.25	–
25 K	12.64 ± 0.33	–
30 K	17.46 ± 0.5	–
35 K	22.45 ± 0.58	–
40 K	27.52 ± 0.58	–
45 K	32.59 ± 0.58	–
50 K	37.66 ± 0.58	–
60 K	47.73 ± 0.58	–
70 K	57.7 ± 0.83	–
79.2 K	66.6 ± 1.1	66.6 ± 1.1
80 K	–	67.26 ± 1.1
90 K	–	76.16 ± 1.2
100 K	–	84.89 ± 1.4
110 K	–	93.54 ± 1.4
120 K	–	102.02 ± 1.4
130 K	–	110.25 ± 1.4
140 K	–	118.48 ± 1.9
150 K	–	126.63 ± 1.9
160 K	–	134.61 ± 2.2
170 K	–	142.59 ± 2.2
180 K	–	150.49 ± 2.4
190 K	–	158.39 ± 2.4
200 K	–	166.21 ± 2.4
210 K	–	174.02 ± 2.7
220 K	–	181.75 ± 2.7
230 K	–	189.49 ± 2.9
240 K	–	197.22 ± 3.2
250 K	–	204.87 ± 3.2
260 K	–	212.6 ± 3.4
270 K	–	220.33 ± 3.4
280 K	–	228.07 ± 3.5
290 K	–	235.72 ± 3.7
298.15 K	–	242.03 ± 3.7
300 K	–	243.45 ± 3.7
310 K	–	251.1 ± 4
320 K	–	258.75 ± 4
330 K	–	266.31 ± 4.2
340 K	–	273.88 ± 4.2
350 K	–	281.53 ± 4.5
360 K	–	289.09 ± 4.5
370 K	–	296.66 ± 4.7

Conditions	Triple point temperature [K]
Crystal 2, Adiabatic calorimetry	79.2 ± 0.2
